Our source for the IC50 values is patent publication US12685726B2, “Sulfoximines as inhibitors of NaV1.8” (Gruenenthal GmbH, priority 2022, dated 2026).

For the test, the target named is T1, human NaV 1.8 (Homo sapiens, UniProt Q9Y5Y9).
T1 construct: expressed in transfected cells; host or cells: HEK (recombinant cell line)
Briefly: Automated whole-cell patch clamp (Qube384) voltage-clamp recordings of sodium currents in HEK-NaV1.8 cell line. The note with it: read-out: Potency category (human NaV 1.8 IC50). Format: cell-based. The essentials:
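HEK cells expressing NaV1.8 with b3, whole-cell automated voltage clamp at room temperature or 19° C.; CsF-based internal, pH 7.4 external. State-dependent (−120 mV, V1/2 4 s, −10 mV test pulses) and 10/20 Hz 40-pulse protocols; ~12 min compound, vehicle-corrected, IC50 by 4-parameter logistic fit.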
On the technique in general: The patch-clamp technique gives a direct electrical read-out from membranes.

Structures are written as SMILES.

T1 sequence (Q9Y5Y9 whole entry): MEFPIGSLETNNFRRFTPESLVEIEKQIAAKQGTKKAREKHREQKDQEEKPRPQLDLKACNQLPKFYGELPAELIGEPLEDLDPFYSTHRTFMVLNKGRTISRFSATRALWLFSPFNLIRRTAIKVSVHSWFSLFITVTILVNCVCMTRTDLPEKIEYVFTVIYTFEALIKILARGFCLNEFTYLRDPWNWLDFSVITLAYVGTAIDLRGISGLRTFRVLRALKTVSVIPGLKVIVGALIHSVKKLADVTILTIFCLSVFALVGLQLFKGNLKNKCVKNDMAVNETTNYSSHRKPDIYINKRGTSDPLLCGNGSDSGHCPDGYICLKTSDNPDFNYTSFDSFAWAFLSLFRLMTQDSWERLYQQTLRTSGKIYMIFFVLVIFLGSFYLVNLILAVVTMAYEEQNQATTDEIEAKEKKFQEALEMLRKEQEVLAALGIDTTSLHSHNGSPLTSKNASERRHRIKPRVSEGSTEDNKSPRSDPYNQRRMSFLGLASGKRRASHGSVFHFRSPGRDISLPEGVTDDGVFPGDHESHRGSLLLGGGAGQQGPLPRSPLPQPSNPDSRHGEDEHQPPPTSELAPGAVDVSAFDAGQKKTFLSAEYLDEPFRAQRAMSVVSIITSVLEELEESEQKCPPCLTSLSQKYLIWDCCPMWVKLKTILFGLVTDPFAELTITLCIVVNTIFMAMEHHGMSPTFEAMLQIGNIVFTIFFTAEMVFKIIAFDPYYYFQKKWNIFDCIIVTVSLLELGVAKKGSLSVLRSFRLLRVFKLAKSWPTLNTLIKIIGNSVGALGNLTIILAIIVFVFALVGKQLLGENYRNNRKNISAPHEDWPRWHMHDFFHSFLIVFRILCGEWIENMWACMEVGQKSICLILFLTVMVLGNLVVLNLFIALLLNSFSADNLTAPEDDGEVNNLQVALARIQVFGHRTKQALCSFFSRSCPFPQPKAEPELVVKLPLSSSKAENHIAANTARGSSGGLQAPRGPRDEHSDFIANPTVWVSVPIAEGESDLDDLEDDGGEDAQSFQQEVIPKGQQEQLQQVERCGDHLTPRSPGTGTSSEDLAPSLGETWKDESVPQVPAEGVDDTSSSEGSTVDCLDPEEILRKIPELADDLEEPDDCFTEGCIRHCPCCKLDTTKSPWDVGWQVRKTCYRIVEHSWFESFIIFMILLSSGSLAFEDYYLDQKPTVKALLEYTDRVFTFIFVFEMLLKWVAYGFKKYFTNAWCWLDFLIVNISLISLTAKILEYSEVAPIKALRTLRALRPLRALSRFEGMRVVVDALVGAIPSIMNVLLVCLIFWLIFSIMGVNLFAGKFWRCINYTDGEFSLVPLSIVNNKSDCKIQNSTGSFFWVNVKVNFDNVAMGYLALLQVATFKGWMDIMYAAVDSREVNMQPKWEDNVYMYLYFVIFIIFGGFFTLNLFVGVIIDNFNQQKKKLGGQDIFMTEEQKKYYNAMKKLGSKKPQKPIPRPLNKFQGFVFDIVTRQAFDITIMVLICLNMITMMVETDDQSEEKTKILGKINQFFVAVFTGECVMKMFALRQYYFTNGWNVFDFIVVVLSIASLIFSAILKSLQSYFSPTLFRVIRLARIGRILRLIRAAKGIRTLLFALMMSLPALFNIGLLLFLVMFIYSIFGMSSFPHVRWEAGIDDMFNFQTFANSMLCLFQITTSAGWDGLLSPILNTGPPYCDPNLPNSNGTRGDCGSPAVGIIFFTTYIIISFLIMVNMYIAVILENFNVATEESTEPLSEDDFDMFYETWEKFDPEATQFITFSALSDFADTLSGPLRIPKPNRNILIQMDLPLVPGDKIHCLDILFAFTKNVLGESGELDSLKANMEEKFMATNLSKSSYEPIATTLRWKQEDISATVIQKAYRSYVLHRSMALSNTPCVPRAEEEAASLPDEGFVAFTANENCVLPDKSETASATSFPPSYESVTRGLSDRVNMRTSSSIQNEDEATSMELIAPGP

Turning to `CC1(Cn2nc(C3CC4(CC4)C3)c(C(F)(F)F)c2C(=O)Nc2ccnc(S(C)(=N)=O)c2)CC(F)(F)C1` (single isomer, unassigned) [Example 61a, 1-((3,3-Difluoro-1-methylcyclobutyl)methyl)-N-(2-(S-methylsulfonimidoyl)pyridin-4-yl)-3-(spiro[2.3]hexan-5-yl)-4-(trifluoromethyl)-1H-pyrazole-5-carboxamide], the concentration for half-maximal inhibition (IC50) is no more than 0.1 µM.
Under `CC1(Cn2nc(C3CC4(CC4)C3)c(C(F)(F)F)c2C(=O)Nc2ccnc(S(C)(=N)=O)c2)CC(F)(F)C1` (single isomer, unassigned) [Example 61b, 1-((3,3-Difluoro-1-methylcyclobutyl)methyl)-N-(2-(S-methylsulfonimidoyl)pyridin-4-yl)-3-(spiro[2.3]hexan-5-yl)-4-(trifluoromethyl)-1H-pyrazole-5-carboxamide] stands no more than 0.1 µM; under `CC1(Cn2nc(C3CC3F)c(C(F)(F)F)c2C(=O)Nc2ccnc(S(C)(=N)=O)c2)CC(F)(F)C1` (single isomer, unassigned) [Example 62b, 1-((3,3-Difluoro-1-methylcyclobutyl)methyl)-3-(2-fluorocyclopropyl)-N-(2-(S-methylsulfonimidoyl)pyridin-4-yl)-4-(trifluoromethyl)-1H-pyrazole-5-carboxamide], no more than 0.1 µM; under `CC1(Cn2nc(C3CC3(F)F)c(C(F)(F)F)c2C(=O)Nc2ccnc(S(C)(=N)=O)c2)CC(F)(F)C1` (single isomer, unassigned) [Example 63a, 1-((3,3-Difluoro-1-methylcyclobutyl)methyl)-3-(2,2-difluorocyclopropyl)-N-(2-(S-methylsulfonimidoyl)pyridin-4-yl)-4-(trifluoromethyl)-1H-pyrazole-5-carboxamide], no more than 0.1 µM.
To `CC1(Cn2nc(C3CC3(F)F)c(C(F)(F)F)c2C(=O)Nc2ccnc(S(C)(=N)=O)c2)CC(F)(F)C1` (single isomer, unassigned) [Example 63b, 1-((3,3-Difluoro-1-methylcyclobutyl)methyl)-3-(2,2-difluorocyclopropyl)-N-(2-(S-methylsulfonimidoyl)pyridin-4-yl)-4-(trifluoromethyl)-1H-pyrazole-5-carboxamide] belongs no more than 0.1 µM; to `CC1(Cn2nc(C3CC3(F)F)c(C(F)(F)F)c2C(=O)Nc2ccnc(S(C)(=N)=O)c2)CC(F)(F)C1` (single isomer, unassigned) [Example 63c, 1-((3,3-Difluoro-1-methylcyclobutyl)methyl)-3-(2,2-difluorocyclopropyl)-N-(2-(S-methylsulfonimidoyl)pyridin-4-yl)-4-(trifluoromethyl)-1H-pyrazole-5-carboxamide], no more than 0.1 µM; to `CC1(Cn2nc(C3CC34CC4)c(C(F)(F)F)c2C(=O)Nc2ccnc(S(C)(=N)=O)c2)CC(F)(F)C1` (single isomer, unassigned) [Example 64a, 1-((3,3-difluoro-1-methylcyclobutyl)methyl)-N-(2-(S-methylsulfonimidoyl)pyridin-4-yl)-3-(spiro[2.2]pentan-1-yl)-4-(trifluoromethyl)-1H-pyrazole-5-carboxamide], no more than 0.1 µM.
For the molecule `CC1(Cn2nc(C3CC34CC4)c(C(F)(F)F)c2C(=O)Nc2ccnc(S(C)(=N)=O)c2)CC(F)(F)C1` (single isomer, unassigned) [Example 64b, 1-((3,3-difluoro-1-methylcyclobutyl)methyl)-N-(2-(S-methylsulfonimidoyl)pyridin-4-yl)-3-(spiro[2.2]pentan-1-yl)-4-(trifluoromethyl)-1H-pyrazole-5-carboxamide], the IC50 was no more than 0.1 µM.
Under `C[C@H]1C[C@@H]1c1nn(CC2(C)CC(F)(F)C2)c(C(=O)Nc2ccnc([S@](C)(=N)=O)c2)c1C(F)(F)F` (single isomer, unassigned) [Example 65a, 1-((3,3-Difluoro-1-methylcyclobutyl)methyl)-3-((trans)-2-methylcyclopropyl)-N-(2-(S-methylsulfonimidoyl)pyridin-4-yl)-4-(trifluoromethyl)-1H-pyrazole-5-carboxamide] stands no more than 0.1 µM; under `C[C@H]1C[C@@H]1c1nn(CC2(C)CC(F)(F)C2)c(C(=O)Nc2ccnc([S@@](C)(=N)=O)c2)c1C(F)(F)F` (single isomer, unassigned) [Example 65b, 1-((3,3-Difluoro-1-methylcyclobutyl)methyl)-3-((trans)-2-methylcyclopropyl)-N-(2-(S-methylsulfonimidoyl)pyridin-4-yl)-4-(trifluoromethyl)-1H-pyrazole-5-carboxamide], no more than 0.1 µM; under `C[C@@H]1C[C@H]1c1nn(CC2(C)CC(F)(F)C2)c(C(=O)Nc2ccnc([S@](C)(=N)=O)c2)c1C(F)(F)F` (single isomer, unassigned) [Example 65c, 1-((3,3-Difluoro-1-methylcyclobutyl)methyl)-3-((trans)-2-methylcyclopropyl)-N-(2-(S-methylsulfonimidoyl)pyridin-4-yl)-4-(trifluoromethyl)-1H-pyrazole-5-carboxamide], no more than 0.1 µM.
To `C[C@@H]1C[C@H]1c1nn(CC2(C)CC(F)(F)C2)c(C(=O)Nc2ccnc([S@@](C)(=N)=O)c2)c1C(F)(F)F` (single isomer, unassigned) [Example 65d, 1-((3,3-Difluoro-1-methylcyclobutyl)methyl)-3-((trans)-2-methylcyclopropyl)-N-(2-(S-methylsulfonimidoyl)pyridin-4-yl)-4-(trifluoromethyl)-1H-pyrazole-5-carboxamide] belongs no more than 0.1 µM; to `CC1(Cn2nc(C3(C#N)CC3)c(C(F)(F)F)c2C(=O)Nc2ccnc(S(C)(=N)=O)c2)CC(F)(F)C1` (single isomer, unassigned) [Example 68a, 3-(1-cyanocyclopropyl)-1-((3,3-difluoro-1-methylcyclobutyl)methyl)-N-(2-(S-methylsulfonimidoyl)pyridin-4-yl)-4-(trifluoromethyl)-1H-pyrazole-5-carboxamide], no more than 0.1 µM.
Take `CC1(Cn2nc(C3(C#N)CC3)c(C(F)(F)F)c2C(=O)Nc2ccnc(S(C)(=N)=O)c2)CC(F)(F)C1` (single isomer, unassigned) [Example 68b, 3-(1-cyanocyclopropyl)-1-((3,3-difluoro-1-methylcyclobutyl)methyl)-N-(2-(S-methylsulfonimidoyl)pyridin-4-yl)-4-(trifluoromethyl)-1H-pyrazole-5-carboxamide]: the concentration for half-maximal inhibition (IC50) is no more than 0.1 µM.
To `CC1(Cn2nc(C3(C)CC3)c(C(F)(F)F)c2C(=O)Nc2ccnc(S(C)(=N)=O)c2)CC(F)(F)C1` (single isomer, unassigned) [Example 69a, 1-((3,3-difluoro-1-methylcyclobutyl)methyl)-3-(1-methylcyclopropyl)-N-(2-(S-methylsulfonimidoyl)pyridin-4-yl)-4-(trifluoromethyl)-1H-pyrazole-5-carboxamide] belongs no more than 0.1 µM; to `CC1(Cn2nc(C3(C)CC3)c(C(F)(F)F)c2C(=O)Nc2ccnc(S(C)(=N)=O)c2)CC(F)(F)C1` (single isomer, unassigned) [Example 69b, 1-((3,3-difluoro-1-methylcyclobutyl)methyl)-3-(1-methylcyclopropyl)-N-(2-(S-methylsulfonimidoyl)pyridin-4-yl)-4-(trifluoromethyl)-1H-pyrazole-5-carboxamide], no more than 0.1 µM.

The term IC50 denotes the concentration at which inhibition is half-maximal.
